These results are taken from US20200179428A1, “CYCLIC PHOSPHATE SUBSTITUTED NUCLEOSIDE DERIVATIVES AND METHODS OF USE THEREOF FOR THE TREATMENT OF VIRAL DISEASES” (priority 2016, published 2020).

Series [1] has as its system replicon cells. Description: Cytotoxicity MTS assay (CellTiter 96 Aqueous One Solution) in replicon cells. Format: cell-based. Conditions: EDU; read-out: CC50 (EDU) Range. (Formazan colour is commonly taken as a measure of viable cells.)
Series [2] has as its system replicon cells (1b-Con1). Description: Replicon activity assay (replicon RNA level by real-time RT-PCR, Taqman). The class given is cell-based. Conditions: HCV replicon genotype 1b; read-out: EC50 (1b) Range. Summed up:
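HCV 1b-Con1 replicon cells treated 3 days with 10-point twofold serial dilutions in triplicate (0.5% DMSO, 10% FBS); replicon RNA quantified by Taqman real-time RT-PCR normalised to GAPDH, EC50 derived. Cytotoxicity by MTS read-out at day 3 on identically treated cells.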

The structures appear in SMILES notation.

The CC50 is the concentration giving 50% cytotoxicity. In general, EC50 refers to the concentration needed to bring the measured effect to its halfway point. As to `CC(C)OC(=O)C(C)CCOP1(=O)OC[C@H]2O[C@@H](n3cnc4c(N)ncnc43)[C@](C)(Cl)[C@@H]2O1` (single isomer, unassigned) [Compound 35B2], the cytotoxic concentration (CC50) in series [1] was over 50 µM. Further, in series [2], the EC50 is at most 0.25 µM.

Turning to `CC(C)OC(=O)C(C)CCOP1(=O)OC[C@H]2O[C@@H](n3cnc4c(N)ncnc43)[C@](C)(Cl)[C@@H]2O1` (single isomer, unassigned) [Compound 35B], the cytotoxic concentration (CC50) in series [1] is over 50 µM. For the same molecule, the EC50 in series [2] was at most 0.25 µM.

Take `C#C[C@]1(C)[C@@H]2OP(=O)(OCCC(C(=O)OC(C)C)C(=O)OC(C)C)OC[C@H]2O[C@H]1n1ccc(=O)[nH]c1=O` (single isomer, unassigned) [Compound 36B]: the CC50 in series [1] is over 50 µM. Besides, the EC50 in series [2] was 1 to 10 µM.

For the molecule `CC(C)OC(=O)[C@@H](C)CCOP1(=O)OC[C@H]2O[C@@H](n3ccc(=O)[nH]c3=O)[C@](C)(Cl)[C@@H]2O1` (single isomer, unassigned) [Compound 39B2], the half-maximal cytotoxic concentration (CC50) in series [1] is over 50 µM. The EC50 in series [2] lay in the range of 0.25 to 1 µM.

With `C#C[C@@]1(O)[C@@H]2OP(=O)(OCCC(C)C(=O)OC(C)C)OC[C@H]2O[C@H]1n1ccc(=O)[nH]c1=O` (stereo partly drawn) [Compound 7B], in series [1], the 50% cytotoxic concentration (CC50) was over 50 µM. Also, the EC50 in series [2] is at most 0.25 µM.

On to `CO[C@H](CCOP1(=O)OC[C@H]2O[C@@H](n3ccc(=O)[nH]c3=O)[C@](C)(Cl)[C@@H]2O1)C(=O)OC(C)C` (stereo partly drawn) [Compound 37B], for which the CC50 in series [1] was over 50 µM. Further, the EC50 in series [2] is at most 0.25 µM.

For `CC(C)OC(=O)C(CCOP1(=O)OC[C@H]2O[C@@H](n3ccc(=O)[nH]c3=O)[C@](C)(Cl)[C@@H]2O1)C(=O)OC(C)C` (stereo partly drawn) [Compound 38B], the CC50 in series [1] is over 50 µM. Further, in series [2], the EC50 is at most 0.25 µM.

With `CC(C)OC(=O)C(C)CCOP1(=O)OC[C@H]2O[C@@H](n3ccc(=O)[nH]c3=O)[C@](C)(Cl)[C@@H]2O1` (stereo partly drawn) [Compound 39B], the CC50 in series [1] was over 50 µM. Moreover, the EC50 in series [2] was at most 0.25 µM.

For the molecule `C#C[C@]1(C)[C@@H]2O[P@@](=O)(OCC(CC(=O)OC(C)C)N(C)C(=O)OC(C)(C)C)OC[C@H]2O[C@H]1n1ccc(=O)[nH]c1=O` (stereo partly drawn) [Compound 74A2], the CC50 in series [1] is over 50 µM. The EC50 in series [2] is over 10 µM.
